Target: T1, recombinant guanylate cyclase reporter cell line (Rattus norvegicus, UniProt P19686+P20595)
T1 construct: expressed in transfected cells; host or cells: recombinant reporter cell line
T1 sequence (P19686 1-690): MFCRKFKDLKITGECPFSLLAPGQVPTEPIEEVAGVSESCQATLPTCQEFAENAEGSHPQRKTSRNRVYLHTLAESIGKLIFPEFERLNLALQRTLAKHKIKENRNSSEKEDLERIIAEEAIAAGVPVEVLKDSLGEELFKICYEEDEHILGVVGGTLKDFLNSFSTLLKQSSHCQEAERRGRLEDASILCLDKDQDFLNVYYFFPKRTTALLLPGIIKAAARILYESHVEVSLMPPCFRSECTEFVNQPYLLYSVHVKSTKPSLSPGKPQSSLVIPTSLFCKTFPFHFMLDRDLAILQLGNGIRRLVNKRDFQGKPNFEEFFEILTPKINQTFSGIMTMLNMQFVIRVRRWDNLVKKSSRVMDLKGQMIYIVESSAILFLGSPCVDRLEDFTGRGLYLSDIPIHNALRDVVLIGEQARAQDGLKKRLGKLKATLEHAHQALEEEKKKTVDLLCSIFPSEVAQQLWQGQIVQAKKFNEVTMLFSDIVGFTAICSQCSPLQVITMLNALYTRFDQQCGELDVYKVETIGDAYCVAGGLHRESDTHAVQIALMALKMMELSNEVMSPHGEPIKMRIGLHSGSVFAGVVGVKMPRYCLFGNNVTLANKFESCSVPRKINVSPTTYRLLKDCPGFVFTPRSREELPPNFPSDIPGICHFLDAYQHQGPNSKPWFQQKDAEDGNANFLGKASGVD
T1 sequence (P20595 1-619): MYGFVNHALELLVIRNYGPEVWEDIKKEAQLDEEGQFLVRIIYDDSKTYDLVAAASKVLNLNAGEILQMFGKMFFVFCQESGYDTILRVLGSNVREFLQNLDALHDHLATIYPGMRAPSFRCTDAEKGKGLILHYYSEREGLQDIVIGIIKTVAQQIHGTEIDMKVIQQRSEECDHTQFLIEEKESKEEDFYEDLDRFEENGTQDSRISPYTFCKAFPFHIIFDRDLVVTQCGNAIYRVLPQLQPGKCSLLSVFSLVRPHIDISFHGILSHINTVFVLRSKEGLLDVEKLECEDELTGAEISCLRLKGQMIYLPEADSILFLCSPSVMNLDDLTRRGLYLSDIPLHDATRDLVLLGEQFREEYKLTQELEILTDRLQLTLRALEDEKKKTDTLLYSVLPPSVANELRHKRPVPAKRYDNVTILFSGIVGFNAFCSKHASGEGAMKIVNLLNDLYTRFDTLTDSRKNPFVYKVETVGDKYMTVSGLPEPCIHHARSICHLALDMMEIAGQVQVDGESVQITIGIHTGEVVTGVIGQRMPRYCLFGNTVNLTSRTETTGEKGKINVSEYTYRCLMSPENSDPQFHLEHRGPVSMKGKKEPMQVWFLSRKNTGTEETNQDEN
Assay: Action on recombinant guanylate cyclase reporter cell line
Assay type: cell-based
Conditions: in some cases mean values from individual determinations
How it was run: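 Each compound is applied to a cell line engineered with a reporter for recombinant guanylate cyclase. The minimal effective concentration is then noted, in part as a mean across separate determinations.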

Compound | MEC (minimal effective concentration)
Cc1cc(OCc2c(F)cccc2F)c2nc(C)c(C(=O)NC3(C)CCC3(C)N)n2c1 (racemic) [Example 335, rac-N-[2-amino-1,2-dimethylcyclobutyl]-8-[(2,6-difluorobenzyl)oxy]-2,6-dimethylimidazo[1,2-a]pyridine-3-carboxamide] | 0.30 µM
CCCC(C)(N)CNC(=O)c1c(C)nc2c(OCc3ccccc3)cc(C)cn12 (racemic) [Example 340, rac-N-(2-amino-2-methylpentyl)-8-(benzyloxy)-2,6-dimethylimidazo[1,2-a]pyridine-3-carboxamide] | 1.00 µM
Cc1cc(OCc2c(F)cccc2F)c2nc(C)c(C(=O)NC3C(N)C3(C)C)n2c1 (racemic) [Example 341, rac-N-(3-amino-2,2-dimethylcyclopropyl)-8-[(2,6-difluorobenzyl)oxy]-2,6-dimethylimidazo[1,2-a]pyridine-3-carboxamide (racemate)] | 0.30 µM
Cc1cc(OCc2c(F)cccc2F)c2nc(C)c(C(=O)NC3CCC4NCCC43)n2c1 (racemic) [Example 342, rac-8-[(2,6-Difluorobenzyl)oxy]-2,6-dimethyl-N-(octahydrocyclopenta[b]pyrrol-4-yl)imidazo[1,2-a]pyridine-3-carboxamide] | 1.00 µM
CCCC(C)(N)CNC(=O)c1c(C)nc2c(OCc3ccccc3Cl)cc(C)cn12 (racemic) [Example 343, rac-N-(2-amino-2-methylpentyl)-8-[(2-chlorobenzyl)oxy]-2,6-dimethylimidazo[1,2-a]pyridine-3-carboxamide] | 1.00 µM
Cc1cc(OCc2c(F)cccc2F)c2nc(C)c(C(=O)NCC3CN(Cc4ccccc4)CCO3)n2c1 (racemic) [Example 344, rac-N-[(4-benzylmorpholin-2-yl)methyl]-8-[(2,6-difluorobenzyl)oxy]-2,6-dimethylimidazo[1,2-a]pyridine-3-carboxamide] | 1.00 µM
Cc1cc(OCc2c(F)cccc2F)c2nc(C)c(C(=O)NCC3CNCCO3)n2c1 (racemic) [Example 345, rac-8-[(2,6-Difluorobenzyl)oxy]-2,6-dimethyl-N-(morpholin-2-ylmethyl)imidazo[1,2-a]pyridine-3-carboxamide] | 1.00 µM
Cc1cc(OCc2c(F)cccc2F)c2nc(C)c(C(=O)NC34CCC3CNC4)n2c1 (racemic) [Example 346, rac-N-(3-azabicyclo[3.2.0]hept-1-yl)-8-[(2,6-difluorobenzyl)oxy]-2,6-dimethylimidazo[1,2-a]pyridine-3-carboxamide] | 1.00 µM
Cc1cc(OCc2c(F)cccc2F)c2nc(C)c(C(=O)NC3CNCC3F)n2c1 (racemic) [Example 347, rac-8-[(2,6-Difluorobenzyl)oxy]-N-(4-fluoropyrrolidin-3-yl)-2,6-dimethylimidazo[1,2-a]pyridine-3-carboxamide] | 1.00 µM
CCCC(C)(N)CNC(=O)c1c(C)nc2c(OCc3cccc(F)c3)cc(C)cn12 (racemic) [Example 348, rac-N-(2-amino-2-methylpentyl)-8-[(3-fluorobenzyl)oxy]-2,6-dimethylimidazo[1,2-a]pyridine-3-carboxamide] | 1.00 µM
Cc1cc(OCc2c(F)cccc2F)c2nc(C)c(C(=O)NCC(C)(N)COc3ccc(F)c(F)c3)n2c1 (racemic) [Example 350, rac-N-[2-amino-3-(3,4-difluorophenoxy)-2-methylpropyl]-8-[(2,6-difluorobenzyl)oxy]-2,6-dimethylimidazo[1,2-a]pyridine-3-carboxamide] | 1.00 µM
CCCC(C)(N)CNC(=O)c1c(C)nc2c(OCc3c(F)cccc3OC)cc(C)cn12 (racemic) [Example 351, rac-N-(2-amino-2-methylpentyl)-8-[(2-fluoro-6-methoxybenzyl)oxy]-2,6-dimethylimidazo[1,2-a]pyridine-3-carboxamide] | 3.00 µM
Cc1cc(OCc2c(F)cccc2F)c2nc(C)c(C(=O)NCC3CSCCN3)n2c1 (racemic) [Example 366, rac-8-[(2,6-difluorobenzyl)oxy]-2,6-dimethyl-N-(thiomorpholin-3-ylmethyl)imidazo[1,2-a]pyridine-3-carboxamide] | 0.10 µM
COc1ccc(CC(C)(N)CNC(=O)c2c(C)nc3c(OCc4c(F)cccc4F)cc(C)cn23)cc1 (racemic) [Example 368, rac-N-[2-amino-3-(4-methoxyphenyl)-2-methylpropyl]-8-[(2,6-difluorobenzyl)oxy]-2,6-dimethylimidazo[1,2-a]pyridine-3-carboxamide] | 0.10 µM
Cc1cc(OCc2c(F)cccc2F)c2nc(C)c(C(=O)NCC(N)c3csc4ccccc34)n2c1 (racemic) [Example 373, rac-N-[2-amino-2-(1-benzothiophen-3-yl)ethyl]-8-[(2,6-difluorobenzyl)oxy]-2,6-dimethylimidazo[1,2-a]pyridine-3-carboxamide] | 3.00 µM

More lines, now with the values ahead:

MEC (minimal effective concentration) | Compound
3.00 µM | Cc1cc(OCc2c(F)cccc2F)c2nc(C)c(C(=O)NCC(N)c3cccc(OCCO)c3)n2c1 (racemic) [Example 367, rac-N-{2-amino-2-[3-(2-hydroxyethoxy)phenyl]ethyl}-8-[(2,6-difluorobenzyl)oxy]-2,6-dimethylimidazo[1,2-a]pyridine-3-carboxamide]
0.30 µM | Cc1cc(OCc2c(F)cccc2F)c2nc(C)c(C(=O)NCC(N)c3ccc(C)o3)n2c1 (racemic) [Example 369, rac-N-[2-amino-2-(5-methyl-2-furyl)ethyl]-8-[(2,6-difluorobenzyl)oxy]-2,6-dimethylimidazo[1,2-a]pyridine-3-carboxamide]
3.00 µM | Cc1cc(OCc2c(F)cccc2F)c2nc(C)c(C(=O)NCC(N)c3cnn(C)c3)n2c1 (racemic) [Example 370, rac-N-[2-amino-2-(1-methyl-1H-pyrazol-4-yl)ethyl]-8-[(2,6-difluorobenzyl)oxy]-2,6-dimethylimidazo[1,2-a]pyridine-3-carboxamide]
3.00 µM | Cc1cc(OCc2c(F)cccc2F)c2nc(C)c(C(=O)NCC(N)c3ccc4c(c3)OCCO4)n2c1 (racemic) [Example 371, rac-N-[2-amino-2-(2,3-dihydro-1,4-benzodioxin-6-yl)ethyl]-8-[(2,6-difluorobenzyl)oxy]-2,6-dimethylimidazo[1,2-a]pyridine-3-carboxamide]
3.00 µM | Cc1cc(OCc2c(F)cccc2F)c2nc(C)c(C(=O)NCC(N)c3ccc4ncccc4c3)n2c1 (racemic) [Example 372, rac-N-[2-amino-2-(quinolin-6-yl)ethyl]-8-[(2,6-difluorobenzyl)oxy]-2,6-dimethylimidazo[1,2-a]pyridine-3-carboxamide]
1.00 µM | Cc1cc(OCc2c(F)cccc2F)c2nc(C)c(C(=O)NCC(N)c3cc(F)c(F)c(F)c3)n2c1 (racemic) [Example 374, rac-N-[2-amino-2-(3,4,5-trifluorophenyl)ethyl]-8-[(2,6-difluorobenzyl)oxy]-2,6-dimethylimidazo[1,2-a]pyridine-3-carboxamide]
3.00 µM | Cc1cc(OCc2c(F)cccc2F)c2nc(C)c(C(=O)NCC(N)c3cccc(OC(F)F)c3)n2c1 (racemic) [Example 375, rac-N-{2-amino-2-[3-(difluoromethoxy)phenyl]ethyl}-8-[(2,6-difluorobenzyl)oxy]-2,6-dimethylimidazo[1,2-a]pyridine-3-carboxamide]
3.00 µM | Cc1cc(OCc2c(F)cccc2F)c2nc(C)c(C(=O)NCC(N)c3cccc(C(F)(F)F)c3)n2c1 (racemic) [Example 376, rac-N-{2-amino-2-[3-(trifluoromethyl)phenyl]ethyl}-8-[(2,6-difluorobenzyl)oxy]-2,6-dimethylimidazo[1,2-a]pyridine-3-carboxamide]

— US20150274719A1, “AMINO-SUBSTITUTED IMIDAZO[1,2-A]PYRIDINECARBOXAMIDES AND THEIR USE” (BAYER PHARMA AKTIENGESELLSCHAFT, priority 2012, published 2015)
